Measured values published in publication PMC8086025, “A benzopyran with antiarrhythmic activity is an inhibitor of Kir3.1-containing potassium channels” (The Journal of Biological Chemistry, 2021).

How the values were obtained:
Kv1.5 = Kv1.5 (Homo sapiens, UniProt P22460); test: Cloned cardiac ion channel manual patch clamp, Kv1.5; format: cell-based; details: MPC (manual patch clamp)
Procedure: (§1) For the data shown in Table S6, HEK293 cells expressing Kir3.1/4, Kir6.2/SUR2A (provided by Dr Andrew Tinker), Kir3.4, Kir2.1, and CHO cell lines stably expressing hERG KV1.5, KV4.3, NaV1.5 were maintained in media containing 10% FCS and appropriate selection antibiotic. Cells were grown either in suspension or in T-flasks and routinely passaged. Cells for patch clamping experiments were plated onto glass cover slips prior to use. Cells for automated patch clamping experiments were freshly prepared on each experimental day.
(§2) Standard giga-seal whole-cell patch-clamp techniques were performed at room temperature using glass pipettes (2–5 MΩ). HEKA EPC9/10 amplifiers and Pulse software were used for data acquisition. Series resistance was compensated by >70%. Experimental solutions are given under Supporting information. […]
(§3) Ionic current recordings were analyzed using HEKA software. […]
(§4) Inhibition of current (or leak-subtracted current) was calculated from steady-state current recorded in the absence (IControl) and presence of test-article (IIntervention). […]
(§5) Concentration-response data were fitted with a sigmoidal function of the form above, where YMin and YMax represent maximum and minimum current inhibition which were constrained to 100 and 0 respectively and x is the Log[DRUG (M)] based on GraphPad Prism analysis. % inhibition was calculated as in Equation 1. […]

Kv4.3 = Kv4.3 (Homo sapiens, UniProt Q9UK17); test: Cloned cardiac ion channel patch clamp, Kv4.3; format: cell-based
Sequence of Kv4.3 (Q9UK17 whole entry): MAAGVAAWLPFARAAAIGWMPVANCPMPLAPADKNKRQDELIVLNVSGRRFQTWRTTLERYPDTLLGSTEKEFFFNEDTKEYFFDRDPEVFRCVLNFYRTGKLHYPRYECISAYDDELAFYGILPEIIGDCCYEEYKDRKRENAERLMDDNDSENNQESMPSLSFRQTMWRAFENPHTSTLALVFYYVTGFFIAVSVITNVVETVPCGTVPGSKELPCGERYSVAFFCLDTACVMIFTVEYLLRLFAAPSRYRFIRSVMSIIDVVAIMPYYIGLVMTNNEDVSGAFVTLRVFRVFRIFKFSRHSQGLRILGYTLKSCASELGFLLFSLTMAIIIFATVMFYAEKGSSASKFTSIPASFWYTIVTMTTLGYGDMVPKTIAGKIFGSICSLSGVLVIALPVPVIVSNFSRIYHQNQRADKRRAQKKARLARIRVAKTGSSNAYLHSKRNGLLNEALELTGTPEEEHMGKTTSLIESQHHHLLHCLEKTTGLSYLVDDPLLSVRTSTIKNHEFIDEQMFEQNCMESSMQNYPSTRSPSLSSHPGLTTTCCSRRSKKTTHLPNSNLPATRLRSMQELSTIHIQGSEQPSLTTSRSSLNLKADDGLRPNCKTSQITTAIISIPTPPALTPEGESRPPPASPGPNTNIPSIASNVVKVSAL
Procedure: as §1, §2, §3, §4, §5

Sequence of Kv1.5 (P22460 whole entry): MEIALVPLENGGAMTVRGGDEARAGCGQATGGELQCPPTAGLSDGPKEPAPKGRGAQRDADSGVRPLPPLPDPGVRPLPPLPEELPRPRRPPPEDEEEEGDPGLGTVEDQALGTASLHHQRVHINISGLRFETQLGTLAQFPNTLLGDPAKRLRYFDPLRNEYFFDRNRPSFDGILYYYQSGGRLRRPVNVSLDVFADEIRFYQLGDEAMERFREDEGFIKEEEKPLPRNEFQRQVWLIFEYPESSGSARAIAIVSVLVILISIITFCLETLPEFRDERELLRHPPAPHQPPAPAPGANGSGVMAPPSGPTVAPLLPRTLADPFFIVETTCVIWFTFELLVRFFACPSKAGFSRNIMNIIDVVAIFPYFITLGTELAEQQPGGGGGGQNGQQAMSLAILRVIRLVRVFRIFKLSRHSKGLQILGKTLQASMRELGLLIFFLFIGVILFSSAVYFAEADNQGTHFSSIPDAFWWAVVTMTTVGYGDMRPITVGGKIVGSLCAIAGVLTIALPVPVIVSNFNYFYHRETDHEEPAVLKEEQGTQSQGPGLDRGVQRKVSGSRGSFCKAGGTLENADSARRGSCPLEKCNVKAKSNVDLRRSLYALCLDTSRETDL

`Cc1cc(CO)nc2cc3c(cc12)OC(C)(C)[C@H](O)[C@H]3NCCc1ccccc1` [BP-G1, (3R,4S)-7-(hydroxymethyl)-2,2,9-trimethyl-4-(2-phenylethylamino)-3,4-dihydropyrano[2,3-g]quinolin-3-ol] gave an IC50 (Kv1.5) of 16.3 µM and an IC50 (Kv4.3) of 11.3 µM.
